# Literature values as cited in US6972176B2, “KVLQT1—a long QT syndrome gene” (University of Utah Research Foundation, priority 1995, dated 2005).
# Target: T1, IKs in isolated myocytes (Cavia porcellus, UniProt O70344)
# T1 construct: host or cells: isolated cardiac myocytes
# T1 sequence (O70344 1-671): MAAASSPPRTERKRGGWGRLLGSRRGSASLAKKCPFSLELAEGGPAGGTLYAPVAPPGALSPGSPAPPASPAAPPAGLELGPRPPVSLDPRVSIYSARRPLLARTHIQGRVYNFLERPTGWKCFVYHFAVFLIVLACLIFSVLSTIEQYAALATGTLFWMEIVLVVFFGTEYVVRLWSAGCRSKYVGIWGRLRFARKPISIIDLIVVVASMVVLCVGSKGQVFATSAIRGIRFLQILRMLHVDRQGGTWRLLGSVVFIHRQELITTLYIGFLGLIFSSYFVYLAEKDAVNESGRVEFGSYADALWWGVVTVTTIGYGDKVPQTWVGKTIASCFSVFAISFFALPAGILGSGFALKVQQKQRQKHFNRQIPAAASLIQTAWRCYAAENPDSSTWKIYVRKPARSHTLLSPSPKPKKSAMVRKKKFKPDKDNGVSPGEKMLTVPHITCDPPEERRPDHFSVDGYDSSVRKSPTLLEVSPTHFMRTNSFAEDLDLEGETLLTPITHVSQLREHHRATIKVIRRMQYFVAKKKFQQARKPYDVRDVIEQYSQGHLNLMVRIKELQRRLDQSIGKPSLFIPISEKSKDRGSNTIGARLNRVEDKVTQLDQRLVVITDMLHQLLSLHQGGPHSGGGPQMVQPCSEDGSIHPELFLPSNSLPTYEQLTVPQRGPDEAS
# Conditions: Balser et al, 1991
compound,measurement,value
C=C[C@H]1C[N@@]2CC[C@H]1C[C@@H]2[C@@H](O)c1ccnc2ccc(OC)cc12 [Quinidine],block of IKs,40-50%
